B1: NEO-101: Chimeric NPC-1 antibody, engineered in CHO-DG44 production cell clone 4B7; targets a variant of MUC5AC (protein)
light: QVVLTQSPVIMSASPGEKVTMTCSASSSISYMYWYQQKPGTSPKRWIYDTSKLASGVPARFSGSGSGTSYSLTISNMEAGDAATYYCHQRDSYPWTFGGGTNLEIK
heavy: QVQLKESGPDLVAPSQSLSITCTVSGFSLSKFGVNWVRQPPGKGLEWLGVIWGDGSTSYNSGLISRLSISKENSKSQVFLKLNSLQADDTATYYCVKPGGDYWGHGTSVTVSS

Assays:
[1] = tested on: lung squamous carcinoma cells; test: Flow cytometry antigen expression, lung squamous cell carcinoma cell lines; assay type: binding, human; conditions: primary antibody at 10 ug/mL; multiple lung squamous cell carcinoma cell lines
Procedure: (§1) FIG. 1. NEO-101, NEO-201 and NEO-301 Antigen Expression by Human Normal and Cancer Cell Lines. NEO-101, NEO-201 and NEO-301 specific antigen expression in various cell lines were detected by Flow Cytometry. Viable cell suspensions were incubated with primary antibody NEO-101, NEO-201 and NEO-301 separately at 10 ug/mL. Human IgG (10 ug/mL) was used as negative control. Goat anti-human IgG (Fc)-phycoerythrin conjugate was used for primary antibody detection; 7-ADD was used for excluding dead cells from analysis. The staining was measured by Flow Cytometry (Guava instrument, Millipore). Median fluorescent intensity (MFI) and % of stained cells was used for determining presence of specific antigen on each cell line.
(§2) Antigen expression in cell lines of various origins were detected by Flow Cytometry. Viable cell suspensions were incubated with primary antibody NEO-101, NEO-201 and NEO-301 separately at 10 ug/mL. Human IgG (10 ug/mL) was used as negative control. Goat anti-human IgG (Fc)-phycoerythrin conjugate was used for primary antibody detection; 7-ADD was used for excluding dead cells from analysis. The staining was measured by Flow Cytometry (Guava instrument, Millipore). Median fluorescent intensity (MFI) and % of stained cells was used for determining presence of specific antigen on each cell line. […]

[2] = tested on: lung adenocarcinoma cells; test: Flow cytometry antigen expression, lung adenocarcinoma cell lines; assay type: binding, human; conditions: primary antibody at 10 ug/mL; multiple lung adenocarcinoma cell lines
Procedure: as §1, §2

[3] = tested on: skin cancer samples; test: IHC on cancer tissue microarray, skin cancer; assay type: binding, human; conditions: biotinylated antibody
Text: (§3) FIG. 2. Immunohistochemistry results from cancer tissue arrays. Immunohistochemistry method (IHC) was used for determining the presence of NEO-101/102, NEO-201 and NEO-301 antigens on paraffin microarrays and tissues. These primary antibodies (NEO-101/NEO-102, NEO-201 and NEO-301) were biotinylated prior to use. Paraffin tissue Microarrays and slides of tissues were reacted with the primary Ab after inactivating endogenous peroxidase and blocking the slides. Staining was detected with streptavidin-horseradish peroxidase conjugate and visualized with chromogen. Biotinylated human IgG1 was used as negative control and mouse anti-human cytokeratin monoclonal antibody was used as positive control. Antibody staining is measured as % and intensity of tumor epithelial cells and luminal secretion within the whole tissue section.
(§4) Immunohistochemistry (IHC) was used for determining the presence of NEO-101/102, NEO-201 and NEO-301 antigens on paraffin microarrays and tissues. These primary antibodies (NEO-101/NEO-102, NEO-201 and NEO-301) were biotinylated prior to use. […] Staining was detected with streptavidin-horseradish peroxidase conjugate and visualized with chromogen. […] Antibody staining was measured as % and intensity of tumor epithelial cells and luminal secretion within the whole tissue section. […]

[4] = tested on: lung cancer samples; test: IHC on cancer tissue microarray, lung cancer; assay type: binding, human; conditions: biotinylated antibody
Text: as §3, §4

[5] = tested on: lung cancer samples; test: IHC on paraffin tissue sections, lung cancer; assay type: binding, human; conditions: biotinylated antibody, relatively fewer samples tested
Text: as §3, §4

[6] = tested on: pancreatic cancer samples; test: IHC on cancer tissue microarray, pancreatic cancer; assay type: binding, human; conditions: biotinylated antibody
Text: as §3
(§5) Immunohistochemistry (IHC) was used for determining the presence of NEO-101/102, NEO-201 and NEO-301 antigens on paraffin microarrays and tissues. These primary antibodies (NEO-101/NEO-102, NEO-201 and NEO-301) were biotinylated prior to use. Paraffin tissue microarrays and slides of tissues were reacted with the primary antibody after inactivating endogenous peroxidase and blocking the slides. Staining was detected with streptavidin-horseradish peroxidase conjugate and visualized with chromogen. Biotinylated human IgG1 was used as negative control and mouse anti-human cytokeratin monoclonal antibody was used as positive control. Antibody staining was measured as % and intensity of tumor epithelial cells and luminal secretion within the whole tissue section.
(§6) The cancer cells and normal cells tested were of the following tissue origins: Colon, Pancreas, Lung, Larynx, Prostate, Esophagus, Uterus, Stomach, Skin, Breast, and Ovary.

[7] = tested on: uterus cancer samples; test: IHC on cancer tissue microarray, uterus cancer; assay type: binding, human; conditions: biotinylated antibody
Text: as §3, §4

[8] = tested on: colorectal adenocarcinoma cells; test: Flow cytometry antigen expression, colorectal adenocarcinoma cell lines; assay type: binding, human; conditions: primary antibody at 10 ug/mL; multiple colorectal adenocarcinoma cell lines
Procedure: as §1
(§7) Antigen expression in cell lines of various origins were detected by Flow Cytometry. Viable cell suspensions were incubated with primary antibody NEO-101, NEO-201 and NEO-301 separately at 10 ug/mL. Human IgG (10 ug/mL) was used as negative control. Goat anti-human IgG (Fc)-phycoerythrin conjugate was used for primary antibody detection; 7-ADD was used for excluding dead cells from analysis. The staining was measured by Flow Cytometry (Guava instrument, Millipore). Median fluorescent intensity (MFI) and % of stained cells was used for determining presence of specific antigen on each cell line.
(§8) The cell lines tested included breast cancer cells, cervical squamous carcinoma cells, colorectal adenocarcinoma cells, lung adenocarcinoma cells, lung carcinoma cells, lung squamous carcinoma cells, myelogenous leukemia cells, ovarian cancer cells, pancreatic adenocarcinoma cells, pancreatic carcinoma cells, prostate adenocarcinoma cells, and prostate cancer cells. Additionally, normal lung cells were tested.

[9] = tested on: colon cancer samples; test: IHC on paraffin tissue sections, colon cancer; assay type: binding, human; conditions: biotinylated antibody
Text: as §3, §5, §6

[10] = tested on: pancreatic cancer samples; test: IHC on paraffin tissue sections, pancreatic cancer; assay type: binding, human; conditions: biotinylated antibody
Text: as §3, §5, §6

[11] = tested on: colon cancer samples; test: IHC on cancer tissue microarray, colon cancer; assay type: binding, human; conditions: biotinylated antibody
Text: as §3, §5, §6

[12] = tested on: pancreatic adenocarcinoma cells; test: Flow cytometry antigen expression, pancreatic adenocarcinoma cell lines; assay type: binding, human; conditions: primary antibody at 10 ug/mL
Procedure: as §1, §7, §8

[13] = tested on: Human tumor xenografts; test: In vivo localization of radiolabeled antibodies in tumor-bearing mice; design: species or system SCID or nude mice; conditions: 111In or 86Y label, intravenous, paper example in present tense
Text: Antibodies NEO-101, NEO-201, and NEO-301 are radiolabeled by conjugation to either ^111In or ^86Y using the acyclic chelate CHX-A″-DTPA. The conjugation molar ratios are empirically determined. Human tumor xenografts are introduced into SCID or nude mice, including the cell lines identified in FIG. 1 as being reactive with NEO-101, NEO-201, or NEO-301 in cell culture and optionally further cancer cell lines detected to bind those antibodies. Control xenografts non-reactive with these antibodies are also utilized. Following intravenous administration of radiolabeled antibodies in tumor-bearing mice, cell samples are harvested and analyzed. Labeled antibody biodistribution is determined with respect to the tumor and other tissues including liver and kidneys.
Additionally, xenograft bearing mice are subjected to imaging studies including planar gamma-imaging performed at multiple time points to assess the stability of labeled antibody binding to the tumor cells and measure the level of accumulation of radiolabeled antibody in other tissues.

[14] = tested on: breast cancer samples; test: IHC on cancer tissue microarray, breast cancer; assay type: binding, human; conditions: biotinylated antibody
Text: as §3, §4

[15] = tested on: esophagus cancer samples; test: IHC on cancer tissue microarray, esophagus cancer; assay type: binding, human; conditions: biotinylated antibody
Text: as §3, §4

[16] = tested on: stomach cancer samples; test: IHC on cancer tissue microarray, stomach cancer; assay type: binding, human; conditions: biotinylated antibody
Text: as §3, §4

Row | Molecule | antigen expression detected by flow cytometry [1] | antigen expression detected by flow cytometry [2] | cancer samples positive for the antigen [3] [%] | cancer samples positive for the antigen [4] [%] | cancer samples positive for the antigen [5] [%] | cancer samples positive for the antigen [6] [%] | cancer samples positive for the antigen [7] [%] | antigen expression detected by flow cytometry [8] | cancer samples positive for the antigen [9] [%] | cancer samples positive for the antigen [10] [%] | cancer samples positive for the antigen [11] [%] | antigen expression detected by flow cytometry [12] | binding of radiolabeled antibody to its antigen in vivo [13] | cancer samples positive for the antigen [14] [%] | cancer samples positive for the antigen [15] [%] | cancer samples positive for the antigen [16] [%]
1 | NEO-201: Humanized 16C3 antibody; binds epitopes in CEACAM5 and CEACAM6 | detected | detected | 16 | 61 | 90 | 86 | 51 | detected | 94 | 83 | 85 | detected | able to bind their respective antigens |  |  | 
2 | NEO-301: Chimeric 31.1 antibody, 2 amino acid changes in HC constant domain, produced in high titer CHO-S cells; binds A33 antigen |  |  |  | 56 |  | 57 |  | detected | 52 | 47 | 87 | detected | able to bind their respective antigens | 78 | 43 | 
3 | B1 |  |  |  |  | 67 | 31 | 41 | detected | 87 | 82 | 61 | detected | able to bind their respective antigens |  |  | 30

Reference: patent publication US20250326859A1, “ANTI-CANCER ANTIBODIES, COMBINATION THERAPIES, AND USES THEREOF” (PRECISION BIOLOGICS, INC., priority 2022, published 2025)
